Test results: article PMC7764826, “Flavonol Glycosides: In Vitro Inhibition of DPPIV, Aldose Reductase and Combating Oxidative Stress are Potential Mechanisms for Mediating the Antidiabetic Activity of Cleome droserifolia” (Molecules, 2020)

Legend:
[1] = DPPH radical scavenging assay; details: 30 min, room temperature, 517 nm
Procedure: The free radical scavenging capacity of the parent extract of C. droserifolia together with the isolated compounds was estimated using 2,2-diphenyl-1-picrylhydrazil (DPPH) as described previously. In brief, 240 µL of 0.004% DPPH in methanol was added to 8 µL of the parent extract and the isolated compounds at different concentrations: (2, 4, 12, 16 µg/mL) and (0.5, 1, 3, 4 µg/mL), respectively. The reaction mixture was mixed and incubated in dark for 30 min at room temperature. The absorbance was then measured at 517 nm against blank that was done using water instead of the plant extract. Ascorbic acid was used as the antioxidant standard and the IC50 value for samples and standard was determined.

[2] = target: T1, Dipeptidyl peptidase IV (DPPIV) (Homo sapiens, UniProt P27487); assay: DPPIV Inhibitor Screening Kit (fluorescence); assay type: biochemical; details: in vitro, mean ± SEM of two replicates; read-out: DPPIV inhibition IC50 (converted)
T1 construct: purchased Abnova
Description: The DPPIV Inhibitor Screening Kit (Abnova, Taipei, Taiwan) was used in accordance to the manufacturer׳s protocol.

[3] = Ferric reducing antioxidant power (FRAP) assay; details: expressed in µM FeCl2; isolated compounds at 200 µg/mL
Procedure: The antioxidant potential of the extract and the isolated compounds was assessed according to the assay originally designed by Benzie and Strain (1996) using the DetectX® Ferric Reducing Antioxidant Power (FRAP™) Detection Kit by Arbor assays, Ann Arbor, USA. In the provided plate, 75 µL of the prepared FRAP Color Solution was mixed with 20 µL of either the aqueous extract (400 µg/mL), the isolated compounds (200 µg/mL), different concentrations of the standard ferrous chloride or ascorbic acid positive control. The mixture was incubated for 30 min at room temperature and the produced blue colored product was read at 560 nm. The FRAP values were calculated and expressed in µM FeCl2.

aldose reductase = target: T2, aldose reductase (Homo sapiens, UniProt P15121); assay: Aldose Reductase Inhibitor Screening Kit (NADPH absorbance at 340 nm); assay type: biochemical; details: in vitro; for IC50: mean ± SEM of two replicates, read-out: Aldose reductase inhibition IC50 (converted)
T2 construct: purchased Biovision
Procedure: Determination of the aldose reductase inhibitory effectiveness of the investigated samples was performed kinetically using the Aldose Reductase Inhibitor Screening Kit (Biovision, Milpitas, CA, USA), according to the manufacturer׳s protocol. The decrease in the absorption of NADPH at 340 nm was measured in a mixture containing NADPH, the enzyme and its substrate, DL-glyceraldeyde in addition to test samples [31]. […] A 90 μL of freshly prepared Aldose Reductase Solution was then added and the plate was incubated protected from light at 37 °C for 15–20 min. After incubation, 40 μL enzyme substrate in assay buffer was added and the absorbance was measured at 340 nm kinetically for 60–90 min at 37 °C. A background control free from the enzyme was run and subtracted from the readings. The IC50 was calculated and presented for the samples and the standard.

breast (MCF7) carcinoma = details: cited from earlier work
liver (HepG2) carcinoma = details: cited from earlier work
colon (HCT116) carcinoma = details: cited from earlier work
[4] = target: Alpha-glucosidase enzyme from Saccharomyces cerevisiae; assay: α-glucosidase inhibition assay (PNP-G substrate); assay type: biochemical; details: in vitro, pH 6.9, 37 °C
Procedure: (§1) Alpha-glucosidase enzyme from Saccharomyces cerevisiae, α-amylase from porcine pancreas and 2-chloro-4-nitrophenyl-α-D-maltotrioside (CNPG3) were purchased from Sigma Aldrich. All other chemicals were purchased from UFC Biotechnology. A microplate reader (Anthos Zenyth-200RT, Cambridge, UK) was used for the spectrophotometric measurements. A Bruker NMR Spectrometer (Bruker, Yokohama, Japan) used for ^1H-NMR (400 MHZ) and ^13C-NMR (100 MHz) analysis. Spectra were recorded in CD3OD or DMSO-d6 using tetramethylsilane (Sigma-Aldrich, St. Louis, MO, USA) as an internal standard, and chemical shift values were expressed in δ ppm.
The tested samples were added to a reaction mixture in a 96-well microplate containing 20 µL of the phosphate buffer and 20 µL of 5 mM p-nitrophenyl α -D-glucopyranoside (PNP-G) in the buffer. […] The IC50 for test compounds as well as the standard was calculated and presented.

[5] = tested on: cultured skeletal muscle cells and adipocytes; set-up: method as in PMID 21890334; details: in vitro; cited from earlier work
[6] = target: T3, α-amylase from porcine pancreas (Sus scrofa, UniProt P00690); assay: α-amylase inhibition assay (CNPG3 substrate, kinetic); assay type: biochemical; details: in vitro, pH 6.9, 37 °C
T3 construct: purchased Sigma Aldrich
T3 sequence (P00690 16-511): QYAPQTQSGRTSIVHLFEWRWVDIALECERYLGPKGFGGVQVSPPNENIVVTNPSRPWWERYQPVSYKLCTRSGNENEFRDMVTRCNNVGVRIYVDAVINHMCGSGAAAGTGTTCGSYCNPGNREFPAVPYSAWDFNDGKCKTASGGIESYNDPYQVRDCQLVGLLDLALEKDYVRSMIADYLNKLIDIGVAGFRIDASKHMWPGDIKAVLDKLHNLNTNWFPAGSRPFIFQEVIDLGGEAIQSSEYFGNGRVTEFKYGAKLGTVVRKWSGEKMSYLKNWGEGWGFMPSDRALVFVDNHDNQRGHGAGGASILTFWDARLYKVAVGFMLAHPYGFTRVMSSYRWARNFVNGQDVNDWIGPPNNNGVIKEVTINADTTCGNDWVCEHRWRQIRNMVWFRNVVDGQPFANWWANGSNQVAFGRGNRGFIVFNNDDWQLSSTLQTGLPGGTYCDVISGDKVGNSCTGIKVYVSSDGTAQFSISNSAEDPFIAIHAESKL
Procedure: as §1
A pre-incubation mixture was prepared which contained 40 mM phosphate buffer (pH 6.9) together with different concentrations (10, 50, 100, 200 µg/mL) and (5, 20, 50, 100 µg/mL) for the parent extract and the isolated compounds, respectively. […] Then, 2-chloro-4-nitrophenyl maltotrioside (CNPG3) substrate was added where the final concentration was 0.9 µmole/mL. […] A control which was devoid of the test samples was also run in parallel.

T1 sequence (P27487 whole entry, species assumed): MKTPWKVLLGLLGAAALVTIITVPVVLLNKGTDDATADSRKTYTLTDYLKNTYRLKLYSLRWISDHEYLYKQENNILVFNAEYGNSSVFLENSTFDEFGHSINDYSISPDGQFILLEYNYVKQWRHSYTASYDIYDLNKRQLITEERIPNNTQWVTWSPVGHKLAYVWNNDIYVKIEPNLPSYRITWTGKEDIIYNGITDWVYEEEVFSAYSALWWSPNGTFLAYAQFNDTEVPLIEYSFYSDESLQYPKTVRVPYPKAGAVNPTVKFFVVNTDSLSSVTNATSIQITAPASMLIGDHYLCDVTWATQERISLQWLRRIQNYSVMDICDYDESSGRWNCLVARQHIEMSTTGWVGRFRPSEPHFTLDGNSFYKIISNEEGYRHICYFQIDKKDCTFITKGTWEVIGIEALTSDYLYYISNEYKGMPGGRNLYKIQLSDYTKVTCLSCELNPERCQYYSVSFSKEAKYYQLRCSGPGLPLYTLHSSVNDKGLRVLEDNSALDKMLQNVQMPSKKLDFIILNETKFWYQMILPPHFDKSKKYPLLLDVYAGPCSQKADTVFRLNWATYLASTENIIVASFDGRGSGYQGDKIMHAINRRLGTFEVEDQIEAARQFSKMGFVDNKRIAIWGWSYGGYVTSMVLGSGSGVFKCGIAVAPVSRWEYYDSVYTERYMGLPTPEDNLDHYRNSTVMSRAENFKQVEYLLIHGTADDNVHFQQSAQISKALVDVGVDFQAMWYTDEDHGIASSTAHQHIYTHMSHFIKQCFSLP

SMILES	DPPH radical scavenging IC50 [1] [µg/mL]	IC50 [2] [µM]	FRAP value [3] [µM]	IC50 (aldose reductase) [µM]	melting point [°C]	Cytotoxic activity (in words) (breast (MCF7) carcinoma)	Cytotoxic activity (in words) (liver (HepG2) carcinoma)	Cytotoxic activity (in words) (colon (HCT116) carcinoma)	α-glucosidase inhibition IC50 [4] [µg/mL]	Effect on basal glucose uptake (in words) [5]	IC50 [6] [µM]	Aldose reductase inhibitory activity (in words) (aldose reductase)
C[C@@H]1O[C@@H](Oc2cc(O)c3c(=O)c(O[C@@H]4O[C@H](CO)[C@@H](O)[C@H](O)[C@H]4O)c(-c4ccc(O)c(O)c4)oc3c2)[C@H](O)[C@H](O)[C@H]1O [Compound 1, quercetin-3-O-β-D-glucosyl-7-O-α-rhamnoside]	5.67 ± 0.09	0.318	3106 ± 52.2	50	–	–	–	–	–	–	–	–
COc1cc(-c2oc3cc(O[C@@H]4O[C@H](CO)[C@@H](O)[C@H](O)[C@H]4O[C@@H]4O[C@@H](C)[C@H](O)[C@@H](O)[C@H]4O)cc(O)c3c(=O)c2O)ccc1O [Compound 2, isorhamnetin-7-O-β-D-neohesperidoside]	–	0.917	–	8.73	225	–	–	–	–	–	–	–
COc1cc(-c2oc3cc(O)cc(O)c3c(=O)c2O[C@@H]2O[C@H](CO)[C@@H](O)[C@H](O)[C@H]2O)ccc1O [Compound 3, isorhamnetin-3-O-β-D-glucoside]	–	0.721	–	45	–	–	–	–	–	–	–	–
COc1ccc(-c2oc3cc(O[C@@H]4O[C@@H](C)[C@H](O)[C@@H](O)[C@H]4O)cc(O)c3c(=O)c2O[C@@H]2O[C@@H](C)[C@H](O)[C@@H](O)[C@H]2O)cc1 [Compound 4, kaempferol-4′-methoxy-3,7-O-α-dirhamnoside]	9.44 ± 0.13	0.474	1812 ± 33.2	51.8	–	potent cytotoxic activities	potent cytotoxic activities	potent cytotoxic activities	110.09 ± 4.2	significant insulin-like effects	258	–
COc1cc(-c2oc3cc(O[C@@H]4O[C@@H](C)[C@H](O)[C@@H](O)[C@H]4O)cc(O)c3c(=O)c2O[C@@H]2O[C@@H](C)[C@H](OC(C)=O)[C@@H](O)[C@H]2O)ccc1O [Compound 5, isorhamnetin-3-O-α-(4″- acetylrhamnoside)-7-O-α-rhamnoside]	11.45 ± 0.48	–	3610 ± 88.3	119	257	potent cytotoxic activities	potent cytotoxic activities	potent cytotoxic activities	86.54 ± 3.8	significant insulin-like effects	163	least aldose reductase inhibitory activity
O=C1O[C@H]([C@@H](O)CO)C(O)=C1O [ascorbic acid, reference compound]	1.37 ± 0.07	–	685.2 ± 1.07	–	–	–	–	–	–	–	–	–
